# Reference: US12227500B2, “Substituted pyrrolo[2,3-b]pyridines for suppressing toxic endoplasmic reticulum stress” (THE TRUSTEES OF COLUMBIA UNIVERSITY IN THE CITY OF NEW YORK, priority 2018, dated 2025)
# Read-outs that look alike come from different tables or passages of the source.
# Tests used:
# Assay in all cases: Radiolabeled ATP kinase assay, panel of 371 kinases (Table S6)
# Format in all cases: biochemical
# [1] = target: T1, panel of 371 human kinases (Homo sapiens, UniProt P31751); settings: AKT2; 0.1 μM; 10 μM ATP; read-out: % Enzyme Activity (relative to DMSO controls)
# T1 construct: purchased Reaction Biology Corp
# Source text: (§1) ; FIG. 38C). […]. Further targeted analyses, such as genetic knock-down or knock-out, may be warranted to parse the role of these additional kinases in our model of neurodegeneration.
# [2] = target: T2, panel of 371 human kinases (Homo sapiens, UniProt Q15569); settings: TESK1; 0.1 μM; 10 μM ATP; read-out: % Enzyme Activity (relative to DMSO controls)
# T2 construct: purchased Reaction Biology Corp
# Source text: as §1
# [3] = target: T3, panel of 371 human kinases (Homo sapiens, UniProt Q8TD19); settings: NEK9; 0.1 μM; 10 μM ATP; read-out: % Enzyme Activity (relative to DMSO controls)
# T3 construct: purchased Reaction Biology Corp
# Source text: as §1
# [4] = target: T4, panel of 371 human kinases (Homo sapiens, UniProt P34947); settings: GRK5; 0.1 μM; 10 μM ATP; read-out: % Enzyme Activity (relative to DMSO controls)
# T4 construct: purchased Reaction Biology Corp
# Source text: as §1
# [5] = target: T5, panel of 371 human kinases (Homo sapiens, UniProt Q86Y07); settings: VRK2; 0.1 μM; 10 μM ATP; read-out: % Enzyme Activity (relative to DMSO controls)
# T5 construct: purchased Reaction Biology Corp
# Source text: as §1
# [6] = target: T6, panel of 371 human kinases (Homo sapiens, UniProt P29376); settings: TYK1/LTK; 0.1 μM; 10 μM ATP; read-out: % Enzyme Activity (relative to DMSO controls)
# T6 construct: purchased Reaction Biology Corp
# Source text: as §1
# [7] = target: T7, panel of 371 human kinases (Homo sapiens, UniProt Q5S007); settings: LRRK2; 0.1 μM; 10 μM ATP; read-out: % Enzyme Activity (relative to DMSO controls)
# T7 construct: purchased Reaction Biology Corp
# Source text: as §1
# [8] = target: T8, panel of 371 human kinases (Homo sapiens, UniProt Q96BR1); settings: SGK3/SGKL; 0.1 μM; 10 μM ATP; read-out: % Enzyme Activity (relative to DMSO controls)
# T8 construct: purchased Reaction Biology Corp
# Source text: as §1
# [9] = target: T9, panel of 371 human kinases (Homo sapiens, UniProt P11802); settings: 0.1 μM, 10 μM ATP, read-out: % Enzyme Activity (relative to DMSO controls)
# T9 construct: purchased Reaction Biology Corp
# Source text: as §1
# [10] = target: T10, panel of 371 human kinases (Homo sapiens, UniProt O14757); settings: CHK1; 0.1 μM; 10 μM ATP; read-out: % Enzyme Activity (relative to DMSO controls)
# T10 construct: purchased Reaction Biology Corp
# Source text: as §1
# [11] = target: T11, panel of 371 human kinases (Homo sapiens, UniProt Q86UX6); settings: STK32C/YANK3; 0.1 μM; 10 μM ATP; read-out: % Enzyme Activity (relative to DMSO controls)
# T11 construct: purchased Reaction Biology Corp
# Source text: as §1
# [12] = target: T12, panel of 371 human kinases (Homo sapiens, UniProt Q9NYY3); settings: PLK2; 0.1 μM; 10 μM ATP; read-out: % Enzyme Activity (relative to DMSO controls)
# T12 construct: purchased Reaction Biology Corp
# Source text: as §1
# [13] = target: T13, panel of 371 human kinases (Homo sapiens, UniProt Q9UBS0); settings: p70S6Kb/RPS6KB2; 0.1 μM; 10 μM ATP; read-out: % Enzyme Activity (relative to DMSO controls)
# T13 construct: purchased Reaction Biology Corp
# Source text: as §1
# [14] = target: T14, panel of 371 human kinases (Homo sapiens, UniProt P48729); settings: CK1a1; 0.1 μM; 10 μM ATP; read-out: % Enzyme Activity (relative to DMSO controls)
# T14 construct: purchased Reaction Biology Corp
# Source text: as §1
# [15] = target: T15, panel of 371 human kinases (Homo sapiens, UniProt Q13188); settings: MST2/STK3; 0.1 μM; 10 μM ATP; read-out: % Enzyme Activity (relative to DMSO controls)
# T15 construct: purchased Reaction Biology Corp
# Source text: as §1
# [16] = target: T16, panel of 371 human kinases (Homo sapiens, UniProt Q5VT25); settings: MRCKa/CDC42BPA; 0.1 μM; 10 μM ATP; read-out: % Enzyme Activity (relative to DMSO controls)
# T16 construct: purchased Reaction Biology Corp
# Source text: as §1
# [17] = target: T17, panel of 371 human kinases (Homo sapiens, UniProt Q15208); settings: STK38/NDR1; 0.1 μM; 10 μM ATP; read-out: % Enzyme Activity (relative to DMSO controls)
# T17 construct: purchased Reaction Biology Corp
# Source text: as §1
# [18] = target: T18, panel of 371 human kinases (Homo sapiens, UniProt Q9NWZ3); settings: IRAK4; 0.1 μM; 10 μM ATP; read-out: % Enzyme Activity (relative to DMSO controls)
# T18 construct: purchased Reaction Biology Corp
# Source text: as §1
# [19] = target: T19, panel of 371 human kinases (Homo sapiens, UniProt P53778); settings: P38g; 0.1 μM; 10 μM ATP; read-out: % Enzyme Activity (relative to DMSO controls)
# T19 construct: purchased Reaction Biology Corp
# Source text: as §1
# [20] = target: T20, panel of 371 human kinases (Homo sapiens, UniProt Q8N568); settings: DCAMKL2; 0.1 μM; 10 μM ATP; read-out: % Enzyme Activity (relative to DMSO controls)
# T20 construct: purchased Reaction Biology Corp
# Source text: as §1
# [21] = target: T21, panel of 371 human kinases (Homo sapiens, UniProt Q9Y243); settings: AKT3; 0.1 μM; 10 μM ATP; read-out: % Enzyme Activity (relative to DMSO controls)
# T21 construct: purchased Reaction Biology Corp
# Source text: as §1
# [22] = target: T22, panel of 371 human kinases (Homo sapiens, UniProt P15735); settings: PHKg2; 0.1 μM; 10 μM ATP; read-out: % Enzyme Activity (relative to DMSO controls)
# T22 construct: purchased Reaction Biology Corp
# Source text: as §1
# [23] = target: T23, panel of 371 human kinases (Homo sapiens, UniProt Q15349); settings: RSK3; 0.1 μM; 10 μM ATP; read-out: % Enzyme Activity (relative to DMSO controls)
# T23 construct: purchased Reaction Biology Corp
# Source text: as §1
# [24] = target: T24, panel of 371 human kinases (Homo sapiens, UniProt P27448); settings: MARK3; 0.1 μM; 10 μM ATP; read-out: % Enzyme Activity (relative to DMSO controls)
# T24 construct: purchased Reaction Biology Corp
# Source text: as §1
# T9 sequence (P11802 whole entry): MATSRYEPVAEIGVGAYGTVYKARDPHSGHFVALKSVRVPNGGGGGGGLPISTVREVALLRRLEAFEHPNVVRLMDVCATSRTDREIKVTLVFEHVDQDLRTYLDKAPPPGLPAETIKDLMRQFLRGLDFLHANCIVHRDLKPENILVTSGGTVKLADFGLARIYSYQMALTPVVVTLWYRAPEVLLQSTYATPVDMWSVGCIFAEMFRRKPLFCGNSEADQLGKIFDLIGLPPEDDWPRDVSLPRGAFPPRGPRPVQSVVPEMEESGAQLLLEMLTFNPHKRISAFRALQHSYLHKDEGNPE
# T5 sequence (Q86Y07 whole entry): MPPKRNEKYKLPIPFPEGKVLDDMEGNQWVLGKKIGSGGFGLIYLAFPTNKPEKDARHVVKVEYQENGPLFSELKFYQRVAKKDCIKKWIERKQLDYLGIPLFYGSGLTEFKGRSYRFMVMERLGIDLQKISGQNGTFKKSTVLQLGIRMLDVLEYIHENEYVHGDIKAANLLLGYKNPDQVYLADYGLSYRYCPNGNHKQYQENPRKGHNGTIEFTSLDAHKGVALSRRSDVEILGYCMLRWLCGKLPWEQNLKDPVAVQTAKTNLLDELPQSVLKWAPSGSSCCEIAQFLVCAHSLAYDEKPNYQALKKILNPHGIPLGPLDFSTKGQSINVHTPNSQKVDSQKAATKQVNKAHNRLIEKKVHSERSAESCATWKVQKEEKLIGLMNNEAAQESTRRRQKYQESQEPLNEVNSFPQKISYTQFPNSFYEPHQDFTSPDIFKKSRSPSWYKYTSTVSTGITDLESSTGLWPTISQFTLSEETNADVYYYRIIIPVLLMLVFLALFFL
# T17 sequence (Q15208 whole entry): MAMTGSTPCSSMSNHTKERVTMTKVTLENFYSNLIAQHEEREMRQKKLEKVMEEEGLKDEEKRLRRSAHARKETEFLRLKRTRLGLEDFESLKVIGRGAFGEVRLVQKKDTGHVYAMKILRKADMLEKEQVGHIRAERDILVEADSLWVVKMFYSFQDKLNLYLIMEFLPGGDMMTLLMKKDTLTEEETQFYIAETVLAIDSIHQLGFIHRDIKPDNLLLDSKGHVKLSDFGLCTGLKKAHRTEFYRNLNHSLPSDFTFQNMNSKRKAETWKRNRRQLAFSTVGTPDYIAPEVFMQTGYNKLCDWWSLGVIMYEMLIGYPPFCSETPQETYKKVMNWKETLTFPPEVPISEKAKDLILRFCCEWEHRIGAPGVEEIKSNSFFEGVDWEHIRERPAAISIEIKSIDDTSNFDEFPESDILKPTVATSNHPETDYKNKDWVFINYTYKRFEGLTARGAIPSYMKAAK
# T4 sequence (P34947 whole entry): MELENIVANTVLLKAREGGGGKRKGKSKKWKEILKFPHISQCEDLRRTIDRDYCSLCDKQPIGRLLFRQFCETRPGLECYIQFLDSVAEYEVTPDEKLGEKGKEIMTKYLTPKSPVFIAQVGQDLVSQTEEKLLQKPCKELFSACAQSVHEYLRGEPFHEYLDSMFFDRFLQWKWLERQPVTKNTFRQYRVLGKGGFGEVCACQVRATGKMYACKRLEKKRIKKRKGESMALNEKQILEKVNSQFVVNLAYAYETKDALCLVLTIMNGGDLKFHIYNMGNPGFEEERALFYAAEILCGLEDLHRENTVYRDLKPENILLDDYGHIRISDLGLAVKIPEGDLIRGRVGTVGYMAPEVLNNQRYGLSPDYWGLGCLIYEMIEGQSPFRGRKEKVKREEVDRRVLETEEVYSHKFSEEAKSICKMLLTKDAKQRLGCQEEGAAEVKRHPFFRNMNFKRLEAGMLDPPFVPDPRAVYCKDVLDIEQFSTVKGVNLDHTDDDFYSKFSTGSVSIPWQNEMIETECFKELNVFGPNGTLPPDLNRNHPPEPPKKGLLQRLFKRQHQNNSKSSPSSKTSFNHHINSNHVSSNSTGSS
# T19 sequence (P53778 whole entry): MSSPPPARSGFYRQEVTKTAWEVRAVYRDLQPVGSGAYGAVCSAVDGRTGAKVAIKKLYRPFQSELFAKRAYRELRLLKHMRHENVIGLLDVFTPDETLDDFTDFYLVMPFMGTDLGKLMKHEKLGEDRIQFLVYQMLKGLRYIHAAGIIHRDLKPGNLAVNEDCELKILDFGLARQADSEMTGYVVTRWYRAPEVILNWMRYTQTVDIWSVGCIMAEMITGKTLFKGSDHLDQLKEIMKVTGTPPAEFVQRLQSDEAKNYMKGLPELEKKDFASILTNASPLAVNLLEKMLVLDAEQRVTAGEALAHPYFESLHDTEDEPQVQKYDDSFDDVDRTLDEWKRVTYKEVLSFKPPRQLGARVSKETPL
# T21 sequence (Q9Y243 whole entry): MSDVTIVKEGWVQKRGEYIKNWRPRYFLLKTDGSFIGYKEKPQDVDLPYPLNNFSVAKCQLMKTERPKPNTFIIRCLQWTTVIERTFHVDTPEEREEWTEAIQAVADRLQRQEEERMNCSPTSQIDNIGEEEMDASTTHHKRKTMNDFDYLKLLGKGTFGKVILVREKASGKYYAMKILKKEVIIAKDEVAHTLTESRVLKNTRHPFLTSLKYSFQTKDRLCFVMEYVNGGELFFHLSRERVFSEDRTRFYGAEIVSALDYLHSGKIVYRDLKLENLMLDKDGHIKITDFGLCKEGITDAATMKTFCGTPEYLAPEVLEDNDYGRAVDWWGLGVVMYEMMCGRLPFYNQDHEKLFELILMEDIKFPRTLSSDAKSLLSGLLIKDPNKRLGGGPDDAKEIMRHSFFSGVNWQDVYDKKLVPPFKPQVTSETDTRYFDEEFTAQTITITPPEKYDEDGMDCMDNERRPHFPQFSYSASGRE
# T2 sequence (Q15569 whole entry): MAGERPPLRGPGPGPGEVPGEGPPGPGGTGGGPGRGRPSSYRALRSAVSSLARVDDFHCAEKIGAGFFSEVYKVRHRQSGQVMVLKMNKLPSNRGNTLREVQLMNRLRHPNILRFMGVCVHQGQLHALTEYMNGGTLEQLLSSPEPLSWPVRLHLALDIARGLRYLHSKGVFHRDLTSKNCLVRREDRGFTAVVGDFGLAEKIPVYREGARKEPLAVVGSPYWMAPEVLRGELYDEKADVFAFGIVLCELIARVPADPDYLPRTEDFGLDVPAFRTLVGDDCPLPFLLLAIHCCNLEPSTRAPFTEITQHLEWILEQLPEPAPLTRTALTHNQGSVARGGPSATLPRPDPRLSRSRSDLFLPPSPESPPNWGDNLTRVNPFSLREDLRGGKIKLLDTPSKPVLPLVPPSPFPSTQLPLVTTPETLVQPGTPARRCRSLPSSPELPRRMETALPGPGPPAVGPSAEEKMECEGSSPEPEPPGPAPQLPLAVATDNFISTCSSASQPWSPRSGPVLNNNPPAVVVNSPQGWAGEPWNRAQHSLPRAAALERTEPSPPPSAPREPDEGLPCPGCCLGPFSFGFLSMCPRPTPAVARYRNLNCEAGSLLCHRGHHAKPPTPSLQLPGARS
# T1 sequence (P31751 whole entry): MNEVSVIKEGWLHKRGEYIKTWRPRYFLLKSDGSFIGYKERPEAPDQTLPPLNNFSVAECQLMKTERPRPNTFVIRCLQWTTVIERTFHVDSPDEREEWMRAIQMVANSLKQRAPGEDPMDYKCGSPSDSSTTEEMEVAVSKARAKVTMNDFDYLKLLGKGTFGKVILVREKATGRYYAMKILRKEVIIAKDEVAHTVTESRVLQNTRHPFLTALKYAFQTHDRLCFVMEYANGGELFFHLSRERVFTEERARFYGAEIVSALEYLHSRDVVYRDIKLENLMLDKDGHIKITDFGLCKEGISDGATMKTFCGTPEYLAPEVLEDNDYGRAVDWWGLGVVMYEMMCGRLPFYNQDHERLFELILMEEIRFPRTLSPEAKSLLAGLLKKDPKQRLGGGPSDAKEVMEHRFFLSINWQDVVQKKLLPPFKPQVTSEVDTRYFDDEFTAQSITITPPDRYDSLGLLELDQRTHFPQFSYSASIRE
# T14 sequence (P48729 whole entry): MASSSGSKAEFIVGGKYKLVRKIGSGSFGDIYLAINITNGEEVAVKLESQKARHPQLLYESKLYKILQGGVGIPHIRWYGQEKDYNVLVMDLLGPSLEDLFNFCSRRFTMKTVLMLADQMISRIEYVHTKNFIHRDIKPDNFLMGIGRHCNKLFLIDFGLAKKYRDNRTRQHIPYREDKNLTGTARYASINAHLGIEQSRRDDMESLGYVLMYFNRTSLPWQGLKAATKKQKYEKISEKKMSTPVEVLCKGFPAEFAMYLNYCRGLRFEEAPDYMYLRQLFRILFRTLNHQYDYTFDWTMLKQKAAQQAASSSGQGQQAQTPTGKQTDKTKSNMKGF
# T8 sequence (Q96BR1 whole entry): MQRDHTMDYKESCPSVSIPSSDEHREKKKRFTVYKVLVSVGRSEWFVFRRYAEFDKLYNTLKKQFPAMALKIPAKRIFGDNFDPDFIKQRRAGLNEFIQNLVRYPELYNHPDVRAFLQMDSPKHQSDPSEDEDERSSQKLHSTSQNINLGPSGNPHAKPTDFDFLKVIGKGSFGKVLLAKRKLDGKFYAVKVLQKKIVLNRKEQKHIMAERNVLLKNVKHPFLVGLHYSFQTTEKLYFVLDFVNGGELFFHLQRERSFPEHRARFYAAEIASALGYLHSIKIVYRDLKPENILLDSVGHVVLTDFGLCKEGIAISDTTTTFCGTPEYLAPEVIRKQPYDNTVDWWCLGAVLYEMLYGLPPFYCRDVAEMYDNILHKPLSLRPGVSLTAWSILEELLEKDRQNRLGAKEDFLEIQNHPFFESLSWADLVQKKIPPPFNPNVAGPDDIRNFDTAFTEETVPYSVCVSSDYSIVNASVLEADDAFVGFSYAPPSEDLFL
SMILES,remaining activity at 0.1 µM [1] [%],remaining activity at 0.1 µM [2] [%],remaining activity at 0.1 µM [3] [%],remaining activity at 0.1 µM [4] [%],remaining activity at 0.1 µM [5] [%],remaining activity at 0.1 µM [6] [%],remaining activity at 0.1 µM [7] [%],remaining activity at 0.1 µM [8] [%],remaining activity at 0.1 µM ([9]; CDK4/cyclin D1) [%],remaining activity at 0.1 µM ([9]; CDK4/cyclin D3) [%],remaining activity at 0.1 µM [10] [%],remaining activity at 0.1 µM [11] [%],remaining activity at 0.1 µM [12] [%],remaining activity at 0.1 µM [13] [%],remaining activity at 0.1 µM [14] [%],remaining activity at 0.1 µM [15] [%],remaining activity at 0.1 µM [16] [%],remaining activity at 0.1 µM [17] [%],remaining activity at 0.1 µM [18] [%],remaining activity at 0.1 µM [19] [%],other results
"CN1CCN(Cc2ccc(-c3cnc4[nH]cc(-c5ccc6[nH]ccc6c5)c4c3)cc2)CC1 [Compound 1, 3-(1H-Indol-5-yl)-5-(4-((4-methylpiperazin-1-yl)methyl)phenyl)-1H-pyrrolo[2,3-b]pyridine, reference compound]",96.7,105,101,98.2,99.8,105,58.8,74.3,69.2,90.9,90,98.3,97.2,107,102,102,105,88.1,106,108,remaining activity at 0.1 µM [20]: 87.1%; remaining activity at 0.1 µM [21]: 98.4%; remaining activity at 0.1 µM [22]: 86%; remaining activity at 0.1 µM [23]: 61.7%; remaining activity at 0.1 µM [24]: 83.2%
"OCCN1CCN(Cc2ccc(-c3cnc4[nH]cc(-c5cccc(Cl)c5)c4c3)cc2)CC1 [Compound 12k, 2-(4-(4-(3-(3-Chlorophenyl)-1H-pyrrolo[2,3-b]pyridin-5-yl)benzyl)piperazin-1-yl)ethan-1-ol]",103,101,95.1,93.3,98.6,117,17,88.2,56.4,67.2,75,93,101,95,91.6,86,96.1,71.9,95.4,99.7,remaining activity at 0.1 µM [20]: 87.6%; remaining activity at 0.1 µM [21]: 97.2%; remaining activity at 0.1 µM [22]: 95.2%; remaining activity at 0.1 µM [23]: 45.3%; remaining activity at 0.1 µM [24]: 46.6%
